# Values of other authors, collected in patent US5001113A, “Di- or tripeptide renin inhibitors containing lactam conformational restriction in ACHPA” (Merck & Co., Inc., priority 1990, dated 1991).
# Where a SMILES comes first, the peptide text is derived from it. [ ]: non-standard residue; d: D form. The star is where a group is joined. Sta = CC(C)C[C@H](N)[C@@H](O)CC(=O)O; Isovaleryl = CC(C)CC(=O)*
# Test system: hog renin
# Conditions: after the injection of hog renin into nephrectomized rats
structure (smiles),measurement,value
CC(C)CC(=O)N[C@H](C(=O)N[C@H](C(=O)N[C@@H](CC(C)C)[C@@H](O)CC(=O)N[C@@H](C)C(=O)N[C@@H](CC(C)C)[C@@H](O)CC(=O)O)C(C)C)C(C)C [pepstatin] (Isovaleryl-VV[Sta]A[Sta]-OH),blood pressure in vivo,reduces blood pressure
